Measured values reported in patent US20150139973A1, “OPHTHALMOLOGICAL VEHICLE SYSTEM FOR DRUGS, OPHTHALMOLOGICAL KIT AND ALSO USE OF AN OPHTHALMOLOGICAL COMPOSITION” (F. HOLZER GMBH, priority 2012, published 2015).

Tested on: human corneal epithelial cell line HCE-T
Assay: Vitality determination on corneal epithelial cells in culture (Cell Titer Blue test)
Type: cell-based
Details: 60 minutes incubation
Procedure: The cytotoxicity tests were performed on the human corneal epithelial cell line […]. in the cell test. Cultivation was effected in a black 96 well plate (Nunc). Per well, 25,000 cells were sown and cultivated for 48 h. Determination of the viability was implemented with the Cell Titer Blue® test. The dye resazurin is hereby added to the cells after exposure with the samples. Viable cells are able, because of their mitochondrial activity, to convert the resazurin into the fluorescent resorufin which can be determined fluorimetrically (Illustration 1). Via positive control (Krebs-Ringer-buffer-KRB and saline phosphate buffer-PBS) and also negative control (lysis buffer), the viability of the cells can be expressed as a percentage. All samples were determined with n=6. For the determination, the cell culture medium was removed, the cells were rinsed with KRB and incubated for 60 minutes with the various samples and also controls. […] Thereafter, all samples were treated with KRB and resazurin according to Promega protocol and measured with a Genios Plate Reader (Tecan).

`CCCCCCCCCCCCCCCC(=O)OC(C)C` [Sample K4, isopropyl palmitate] was tested, and the cytotoxicity was “lowest cytotoxicity” and the “survival rate of the cells” value was 100%.
